Measured values: PubChem BioAssay (NCI)
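In this assay, cells in 96-well plates receive the compound at five concentrations for 48 hours. Endpoints are linearly interpolated between the surrounding concentrations. TGI: total growth inhibition.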

Tests used:
Assay in all cases: NCI-60 cell line screen, 48 h
[1] = test system: COLO 205 colon
[2] = test system: SK-MEL-5 melanoma
[3] = test system: U251 CNS
[4] = test system: ACHN renal
[5] = test system: SK-MEL-2 melanoma
[6] = test system: T-47D breast
[7] = test system: SF-539 CNS
[8] = test system: UO-31 renal
[9] = test system: NCI-H226 lung
[10] = test system: CAKI-1 renal
[11] = test system: A498 renal
[12] = test system: MDA-MB-231 breast
[13] = test system: TK-10 renal
[14] = test system: NCI-H23 lung
[15] = test system: EKVX NSCLC
[16] = test system: 786-0 renal
[17] = test system: SK-OV-3 ovarian
[18] = test system: HS 578T breast

| SMILES | TGI [1] [µM] | TGI [2] [µM] | TGI [3] [µM] | TGI [4] [µM] | TGI [5] [µM] | TGI [6] [µM] | TGI [7] [µM] | TGI [8] [µM] | TGI [9] [µM] | TGI [10] [µM] | TGI [11] [µM] | TGI [12] [µM] | TGI [13] [µM] | TGI [14] [µM] | TGI [15] [µM] | TGI [16] [µM] | TGI [17] [µM] | TGI [18] [µM] |
| --- | --- | --- | --- | --- | --- | --- | --- | --- | --- | --- | --- | --- | --- | --- | --- | --- | --- | --- |
| Cc1cc2nc3c(C#N)c(-c4ccccc4)/c(=C\Nc4ccc(Cl)cc4)c(=O)n3c2cc1C | > 100 | > 100 | > 100 | > 100 | > 100 | > 100 | > 100 | > 100 | > 100 | > 100 | > 100 | > 100 | > 100 | > 100 | > 100 | > 100 | > 100 | – |
| C1=Nc2ccc(cc2)N=Cc2ccccc2OCc2cccc(n2)COc2ccccc21 | > 100 | > 100 | > 100 | > 100 | > 100 | > 100 | 81.6 | > 100 | > 100 | > 100 | > 100 | > 100 | > 100 | > 100 | > 100 | > 100 | > 100 | – |
| NC1OC(COC(=O)c2ccccc2)C(O)C(OC(=O)c2ccccc2)C1OC(=O)c1ccccc1 (stereo not drawn) | 50.3 | 27.5 | 34.2 | 56 | 96.7 | > 100 | – | 94.2 | 43.1 | – | – | 45.9 | > 100 | 61.9 | 60.2 | 30.3 | > 100 | 42.6 |
| c1ccc(CSc2ccccc2CN2CCN(Cc3ccccc3SCc3ccccc3)CCN(Cc3ccccc3SCc3ccccc3)CC2)cc1 | 2.21 | 2.95 | 2.08 | 10.7 | 2.83 | 4.81 | 3.54 | 7.66 | 3.46 | 11.3 | 5.81 | 3.16 | 5.72 | 2.67 | 3.39 | 3.01 | 6.34 | – |
| CCOC(=O)[C@@H]1OC(c2ccccc2)O[C@H]1C(=O)OCC | > 100 | > 100 | > 100 | > 100 | > 100 | – | – | > 100 | > 100 | – | > 100 | > 100 | > 100 | > 100 | > 100 | > 100 | > 100 | > 100 |
| O=C(Nc1cc2c(=O)[nH]c3ccccc3c2oc1=O)c1cnccn1 | > 100 | > 100 | > 100 | > 100 | > 100 | > 100 | > 100 | > 100 | > 100 | > 100 | – | > 100 | > 100 | > 100 | > 100 | > 100 | > 100 | – |
| COc1ccc2oc(=Nc3ccccc3)c(C(N)=O)cc2c1 | > 100 | > 100 | > 100 | 42 | > 100 | > 100 | > 100 | > 55.6 | > 100 | > 100 | – | > 100 | > 87.6 | > 100 | > 100 | > 100 | > 70.2 | > 70.1 |
| C=C(C)CNC(=S)N(N)c1ccc(OC)cc1 | > 100 | > 100 | > 100 | > 100 | – | > 100 | > 100 | > 100 | > 100 | – | – | > 100 | > 100 | > 100 | > 100 | > 100 | > 100 | > 100 |
| CCOC(=O)C(NC(=O)C(CCCCNP(=O)(OCC)OCC)NC(=O)C(C)NC(C)=O)C(C)C (stereo not drawn) | > 100 | > 100 | > 100 | > 100 | > 100 | – | > 100 | > 100 | > 100 | > 100 | > 100 | > 100 | > 100 | > 100 | > 100 | > 100 | – | – |
| O=C(CSc1nnc(Cc2ccccc2)o1)Nc1cccc(Cl)c1 | > 100 | > 100 | > 100 | > 100 | > 100 | – | > 100 | > 100 | > 100 | > 100 | > 100 | – | > 100 | > 100 | > 100 | > 100 | > 100 | – |
| CCCCOCn1c(=O)[nH]c(=O)c2ccccc21 | > 100 | > 100 | > 100 | > 100 | > 100 | – | > 100 | 46.7 | > 100 | > 100 | > 100 | > 100 | > 100 | – | > 100 | > 100 | > 100 | – |
| Cc1cc(N)ccc1N=Nc1ccc(S(=O)(=O)CCOS(=O)(=O)O)cc1 | 6.08 | 2.23 | 13.1 | 14.4 | 3.89 | > 59.1 | 6.9 | 8.63 | 15.6 | 8.61 | 31.1 | – | 27.5 | 24.5 | > 53 | 6.55 | – | 35.5 |
| Cc1c(-c2ccccc2)[nH]c2ccc(Cl)cc2c1=O | > 100 | 56.3 | 57.5 | > 100 | 87 | > 100 | 42.9 | 0.507 | > 100 | 3.82 | – | 96 | > 100 | > 100 | > 100 | > 100 | 87.6 | > 100 |
| Nc1ccc(Oc2ccc(C3(c4ccc(Oc5ccc(N)cc5)cc4)C4CC5C6CC7CC5C3C(C7)C6C4)cc2)cc1 | > 100 | > 100 | > 70 | > 100 | > 100 | – | > 100 | > 100 | > 100 | > 100 | 18.9 | 77 | > 100 | > 95.3 | > 100 | > 100 | – | > 100 |
